The text below walks through data of US11819489B2 (priority 2017, dated 2023).

Several values for one entry are separate records, joined by “and”; a condition that tells them apart may be missing. Identical values can stand only once. Entries after “also recorded” stand apart in the source; their conditions may differ.

Series [1] can be described thus: Stability of As-LHP complexes in Milli-Q water by XAS. Format: physicochemical. Particulars: 37° C.; for stability in Milli-Q water: XANES. On the procedure:
The stability of As-LHP complexes was studied by XAS. Samples were prepared by dissolving HyAs(LHP), MeAs(LHP) or PhAs(LHP) (1.5 mM) in Milli-Q water which was maintained at 37° C. Immediately prior to analysis the arsenic-peptide solution (600 μL) was mixed with ethylene glycol (300 μL) to prevent crystallisation during rapid freezing. The resultant solution (1 mM final As concentration) was transferred by syringe to the sample holder which was sealed with Kapton tape. The sample was then rapidly submerged in liquid nitrogen and transferred to the liquid helium cryostat where it was analysed at 10° K.
Arsenic K-edge XAS data were collected at the Australian National Beamline Facility (ANBF, beamline 20B) KEK, Tsukuba, Japan with a beam energy of 2.5 GeV, and beam current of 300-400 mA. A Si[111] channel-cut monochromator was detuned by 50% to reject harmonics. All spectra were recorded in fluorescence mode at ˜10° K (maintained with a closed-cycle He Cryolndustries REF-1577-D22 cryostat) using a 36-element Ge-array detector (Eurisys/Canberra Industries) and a 1-mm vertical slit width. XAS spectra were obtained at the zero time point and then at a later time point, 4 h or 14 h. The spectra from the two time points were processed and analysed using EXAFS PAK.

Series [2] concerns K562 cells.
Series [3] can be described thus: Stability of As-LHP complexes in cell medium (IMDM) by XAS. Format: physicochemical. The note with it: 37° C., 0 h vs 24 h; for stability in IMDM: XANES. On the procedure: The stability of the two most promising As-LHP complexes was also studied in cell medium (IMDM). Samples were prepared by dissolving MeAs(LHP) or PhAs(LHP) (1.5 mM) in IMDM which was maintained at 37° C. The same protocol was followed as that for the Milli-Q water stability studies. XAS spectra were obtained at the zero time point and then at 24 h. As with the Milli-Q water samples, the spectra from the two time points were processed, fitted and quantified using EXAFSPAK.

Series [4] deals with Kasumi-1 cells. Put plainly: Cellular As uptake, Kasumi-1 cells. In kind it is cell-based, human. Particulars: 24-h treatment, 1.5 μM As. On the procedure: (§1) FIG. 24 is a graphical summary of the cellular As concentrations associated with the specified cell lines following 24-h treatment (1.5 μM As). The results are represented as the mean and standard deviation of triplicate samples.
(§2) FIG. 24 summarises the cellular As concentrations associated with the different cell types following 24-h treatment with the various As compounds (1.5 μM As). The leukemia cell lines, K562, HL-60, Kasumi-1 and KARPAS 45, are depicted in red (lighter of the filled in blocks), and the non-leukemia cell types are depicted in black (darkest shading), with the cancerous adherent cells, HepG2, in the diagonal stripes, and the normal cells, hPBMC, in solid black.

The test system of series [5] is HepG2 cells. Format: cell-based, human.
The next series has as its system hPBMC. Put plainly: Cellular As uptake, hPBMC. In kind it is cell-based, human. Particulars: 24-h treatment, 1.5 μM As. On the procedure:
as §1, §2

The test system of series [6] is K562 cells. Put plainly: Fate of PhAs(LHP) in K562 cells (micrographs, microprobe SR-XRF, XANES). Format: cell-based, human. The note with it: K562, 10 μM. On the procedure: (§3) The cell lines, K562 and HL-60, were obtained and maintained as previously described. Glutaraldehyde (25% solution), Spurr's low viscosity embedding resin, 3-mm gold Finder grids, and toluidine blue were sourced from Proscitech (Kirwan, Australia). Thin-sectioned cells were prepared for microprobe SRXRF analysis using procedures documented previously. Briefly the cells were treated in cell culture flasks (75 cm^2) with either IMDM (for the control cells, 4 h or 24 h) or PhAs(LHP) (10 μM in IMDM, 4 h or 24 h). The cells were washed with PBS (2 times) using centriguation and the final cell pellet was fixed in gluteraldehyde (1 mL, 2% v/v in PBS) for 2 h at room temperature; and dehydrated in ethanol (30%×2, 50%×2, 70%×2, 80%×2, 90%×2, 95%×2, 100%×4). Infiltration was achieved by rocking the cells in 50% ethanol/50% Spurr's resin overnight and then replacing with 100% Spurr's resin (×2 over 2 days) to ensure the removal of all traces of water. On the final day, the cells were embedded in 100% Spurr's resin, centrifuged (8000 g, 1 h) and cured at 60° C. overnight in a Beem capsule. Thin sections (1 μm) of the cell pellet were cut using an ultramicrotome (Leica EM UC7). The thin-sections were stained with toluidine blue before mounting on silicon nitride membranes.
The gold Finder grids were attached to kinematic mounts designed to fit both the light microscope (Leica DMXRE Epi-fluorescence/visual microscope) and the X-ray microprobe (2-ID-D). […]
Microprobe SR-XRF was performed at beamline 2-ID-D at the Advanced Photon Source, Argonne National Laboratory (Lemont, Ill., USA). […] Fluorescent X-rays were detected using a dwell time of 2.5 s/pt and an energy dispersive Vortex EM (Hitachi High-Technologies Science America, Northridge, Calif.) silicon drift detector. […] Conversion of elemental fluorescence intensities to absolute densities in microgram per square centimetre (μg/cm^2) was performed by comparing X-ray fluorescence intensities with those from thin film standards, NBS-1832 and NBS-1833 (NIST, Gaithersburg, Md., USA).

Series [7] deals with HL-60 cells. Put plainly: Fate of PhAs(LHP) in HL-60 cells (micrographs, microprobe SR-XRF, XANES). In kind it is cell-based, human. The note with it: HL-60, 10 μM. On the procedure: as §3
The gold Finder grids were attached to kinematic mounts designed to fit both the light microscope (Leica DMXRE Epi-fluorescence/visual microscope) and the X-ray microprobe (2-ID-D). Optical micrographs and XY coordinates were obtained in order to locate suitable cells for analysis.
Microprobe SR-XRF was performed at beamline 2-ID-D at the Advanced Photon Source, Argonne National Laboratory (Lemont, Ill., USA). The 11.9-keV X-ray beam was focused to a spot size of 0.3×0.3 μm^2 using two zone plates. The samples were housed in a helium atmosphere and the distributions of the elements from P (2.1 keV) to As (11.9 keV) were mapped by raster scanning the sample in 0.3 μm steps, with the aid of a XYZ motorised stage. Fluorescent X-rays were detected using a dwell time of 2.5 s/pt and an energy dispersive Vortex EM (Hitachi High-Technologies Science America, Northridge, Calif.) silicon drift detector. Elemental distribution maps were processed using MAPS Version 1.7.3.02 software package (S. Vogt, Advanced Photon Source). Conversion of elemental fluorescence intensities to absolute densities in microgram per square centimetre (μg/cm^2) was performed by comparing X-ray fluorescence intensities with those from thin film standards, NBS-1832 and NBS-1833 (NIST, Gaithersburg, Md., USA).

Series [8] concerns HL-60 cells.
Series [9] deals with Kasumi-1 cells.
Series [10] relates to HepG2 cells.
The test system of another series is A549 cells. The note with it: 24-h treatment.
The test system of series [11] is Chinese hamster (CH) solid tumour cells.
For series [12], the system named is human peripheral blood mononuclear cells (hPBMC).

For the compound `CC(=O)N[C@H]1CS[As](O)SC[C@@H](C(=O)O)NC(=O)[C@H](CCCNC(=N)N)NC(=O)[C@H](CCCNC(=N)N)NC(=O)[C@H](CC(C)C)NC(=O)[C@H](CCCNC(=N)N)NC(=O)[C@H](Cc2c[nH]cn2)NC(=O)[C@H](Cc2ccc(O)cc2)NC(=O)[C@H](C)NC1=O` (stereo partly shown) [HyAs(LHP)], the “stability in Milli-Q water” value in series [1] (0 h vs 4 h) was “not stable in Milli-Q water for 4 h; also recorded: lack of stability”. The “IC50 as percentage of that of ATO” value with K562 cells [2] stood at 60%.
For `CC(=O)N[C@H]1CS[As](C)SC[C@@H](C(=O)O)NC(=O)[C@H](CCCNC(=N)N)NC(=O)[C@H](CCCNC(=N)N)NC(=O)[C@H](CC(C)C)NC(=O)[C@H](CCCNC(=N)N)NC(=O)[C@H](Cc2c[nH]cn2)NC(=O)[C@H](Cc2ccc(O)cc2)NC(=O)[C@H](C)NC1=O` (stereo partly shown) [MeAs(LHP)], in [1] (0 h vs 14 h), the “agreement between As K-edge XANES spectra at the two time points” value is 93% and the “stability in Milli-Q water” value is listed as “good stability”. In series [3], the “agreement between As K-edge XANES spectra at the two time points” value amounted to 82% and the “stability in IMDM” value was “reasonable stability”. In addition, in the series on K562 cells [2], the “IC50 as percentage of that of ATO” value is recorded as 37% and the “IC50 as percentage of that of HyAs(LHP)” value was 60%.
On to `CC(=O)N[C@H]1CS[As](c2ccccc2)SC[C@@H](C(=O)O)NC(=O)[C@H](CCCNC(=N)N)NC(=O)[C@H](CCCNC(=N)N)NC(=O)[C@H](CC(C)C)NC(=O)[C@H](CCCNC(=N)N)NC(=O)[C@H](Cc2c[nH]cn2)NC(=O)[C@H](Cc2ccc(O)cc2)NC(=O)[C@H](C)NC1=O` (stereo partly shown) [PhAs(LHP)], for which, in series [1] (0 h vs 14 h), the “agreement between As K-edge XANES spectra at the two time points” value is roughly 100% and the “stability in Milli-Q water” value is reported as “stable in Milli-Q water for 14 h; also recorded: excellent stability”. In series [3], the “agreement between As K-edge XANES spectra at the two time points” value is recorded as 97% and the “stability in IMDM” value is recorded as “reasonably stable in IMDM for 24 h; also recorded: good stability”. In the series on Kasumi-1 cells [4], the “cellular As concentration in Kasumi-1 cells, times greater than in HL-60 cells” value amounted to 1.4 times; the “cellular As concentration in Kasumi-1 cells, times higher than in K562 cells” value amounted to 1.2 times; the “cellular As concentration in Kasumi-1 cells, times higher than in KARPAS 45 cells” value was found to be 4.0 times. For the same compound, in the series on HepG2 cells [5], the “cellular As concentration” value was “no detectable cellular As concentrations”. For the same compound, the “cellular As concentration” value with hPBMC was “no detectable cellular As concentrations”. In addition, the “cell morphology (toluidine-blue micrograph)” value (“cell morphology” below) in the series on K562 cells [6] (4 h) is on record as “clear evidence of cell stress with fragmentation of the nucleus”. Also, in the series with K562 cells [6] (4 h and 24 h), the “intracellular As distribution (microprobe SR-XRF)” value (from here on “intracellular As distribution”) is on record as “significant As throughout the cell with evidence of accumulation in the cell nucleus”. For the same compound, in the series on K562 cells [6] (24 h), the “cell morphology” value was “breakdown of the cell membrane and fragmented/dispersed nuclear material”. In the series with HL-60 cells [7] (4 h), the “cell morphology” value is “cell distress is evident” and the “intracellular As distribution” value is recorded as “only small localisations of As”. Also, in the series on HL-60 cells [7] (24 h), the “cell morphology” value is on record as “high degree of cell degredation with evidence of cell demise” and the “intracellular As distribution” value is recorded as “the nucleus clearly contains a greater accumulation of As than the rest of the cell”. In the series with HL-60 cells [8], the IC50 (commonly the point on the concentration scale where inhibition reaches its midpoint) stood at 0.5 ± 0.1 µM and the “relative toxicity / IC50 versus another compound, in words (comparator in the value)” value is listed as “three times greater toxicity toward HL-60 cells than the PAO starting material”. Moreover, in the series with Kasumi-1 cells [9], the IC50 is 1.4 ± 0.1 µM; the “relative toxicity / IC50 versus another compound, in words (comparator in the value)” value is given as “approximately forty times more toxic than ATO”; the “times more toxic than PAO” value came to 3.6 times; the “times more toxic than PhAs(sLHP)” value is given as “about 460 times”. Further, in the series on HepG2 cells [10], it took 978 ± 11 µM to reach half-maximal inhibition (IC50); the “selectivity: IC50 in HepG2 cells, times greater than in K562 and HL-60 cells” value is roughly 2000 times. The “selectivity: IC50 in A549 cells, times greater than in K562 and HL-60 cells” value in the series with A549 cells is on record as 470 times. For the same compound, the IC50 in the series with A549 cells (A549 cells, MTT) came to 234 ± 5 µM. Also, in series [11], half-maximal inhibition (IC50) required 770 ± 12 µM; the “selectivity: IC50 in CH solid tumour cells, times greater than in K562 and HL-60 cells” value is on record as “approximately 1500 times”. In series [12], the IC50 came to 495 ± 6 µM; the “selectivity: IC50 in hPBMC, times greater than in K562 and HL-60 cells” value was “approximately 1000 times”; the “selectivity: IC50 in hPBMC, times greater than in KARPAS 45 cells” value was “approximately 64 times”.
On to arsenic trioxide [ATO], for which the “cellular As concentration in Kasumi-1 cells, times greater than in HepG2 cells” value with Kasumi-1 cells [4] is given as 5.5 times. The IC50 is 9.7 ± 0.2 µM with K562 cells [2]; 7 ± 0.1 µM with HL-60 cells [8]; 61 ± 1 µM in the series on Kasumi-1 cells [9]; 15.1 µM and 15 µM with KARPAS 45 cells; 52 ± 3 µM with HepG2 cells [10]; 23.3 ± 0.9 µM in series [11]. Besides, the IC50 in [12] is 81.7 µM and 82 µM. The “relative toxicity / IC50 versus another compound, in words (comparator in the value)” value in the series with K562 cells [2] was “approximately half that of arsenite”; in the series on HL-60 cells [8] it was “a little less than half that obtained for arsenite”; in series [12], “approximately twice that obtained for arsenite”. In addition, the “IC50 as percentage of the value for arsenite” value in the series on KARPAS 45 cells turned out to be 23%. Further, the “times more toxic than arsenite” value in the series with HepG2 cells [10] turned out to be 1.7 times.
